Laboratory results: patent EP0290003A2, “Imidazoles” (Byk Gulden Lomberg Chemische Fabrik GmbH, priority 1987, dated 1988)
Where two headings read alike, the source gives them in different places.

Test system: modifizierten Shay-Ratte
Test: Antiulcerogenic and secretion-inhibiting effect in the modified Shay rat (pylorus ligation + oral acetylsalicylic acid)
Format: in vivo
Settings: for Magenschutzwirkung: Minderung des Läsionsindexes (%) / Säuresekretionshemmung: Verringerung der HCl-Sekretion (%): versus control group, 4 h after pylorus ligation; for ED50: iv, 4 h, i.v.
From the text: Prüfung der antiulcerogenen und sekretionshemmenden Wirkung an der modifizierten Shay-Ratte
In der folgenden Tabelle 1 ist der Einfluß der erfindungsgemäßen Verbindungen nach intravenöser (i. v.) Gabe auf die Läsionsbildung sowie die Säureausscheidung bei der modifizierten Shay-Ratte dargestellt.
Die Ulcusprovokation erfolgt an 24 Stunden nüchternen Ratten (weiblich, 180-200 g, 4 Tiere je Käfig auf hohem Gitterrost) durch Pylorusligatur (unter Diethylethernarkose) und orale Applikation von 100 mg/10ml/kg Acetylsalicylsäure. Die zu prüfenden Substanzen werden intravenös (1 ml/kg) unmittelbar nach der Pylorusligatur verabreicht. Der Wundverschluß wird mittels Michelklammern vorgenommen. 4 Stunden danach erfolgt die Tötung der Tiere im Etherrausch durch Atlas-Dislokation und die Resektion des Magens.
Der Magen wird längs der großen Kurvatur eröffnet und auf einer Korkplatte aufgespannt, nachdem zuvor die Menge des sezernierten Magensaftes (Volumen) und später sein HCl-Gehalt (Titration mit Natronlauge) bestimmt wird. Mit einem Stereomikroskop werden bei 10-facher Vergrößerung Anzahl und Größe (=Durch-messer) vorhandener Ulcera ermittelt. Das Produkt aus Schweregrad (gemäß nachfolgender Punkteskala) und Anzahl der Ulcera dient als individueller Läsionsindex.
Als Maß für den antiulcerogenen Effekt dient die Minderung des mittleren Lä-sionsindex jeder behandelten Gruppe gegenüber dem der Kontrollgruppe (=100 %). Die ED50 bezeichnet diejenige Dosis, die den mittleren Lösionsindex bzw. die HCl-Sektetion gegenüber der Kontrolle um 50 % mindert.

[1] = Rattus norvegicus, interpolated dose reducing the lesion index by 50 % versus control group, read-out: Magenschutzwirkung: ca. ED50 (µmol/kg) i.v.
[2] = interpolated dose reducing the HCl secretion of the rat stomach by 50 % versus control group, read-out: Säuresekretionshemmung: ca. ED50 (µmol/kg) i.v.

| Structure (SMILES) | Magenschutzwirkung: Minderung des Läsionsindexes (%) (Dosis 0,1 µmol/kg i.v.) | Säuresekretionshemmung: Verringerung der HCl-Sekretion (%) (Dosis 0,1 µmol/kg i.v.) | Magenschutzwirkung: Minderung des Läsionsindexes (%) (Dosis 0,03 µmol/kg i.v.) | Säuresekretionshemmung: Verringerung der HCl-Sekretion (%) (Dosis 0,03 µmol/kg i.v.) | Magenschutzwirkung: Minderung des Läsionsindexes (%) (Dosis 0,3 µmol/kg i.v.) | Säuresekretionshemmung: Verringerung der HCl-Sekretion (%) (Dosis 0,3 µmol/kg i.v.) | Magenschutzwirkung: Minderung des Läsionsindexes (%) (Dosis 1,0 µmol/kg i.v.) | Säuresekretionshemmung: Verringerung der HCl-Sekretion (%) (Dosis 1,0 µmol/kg i.v.) | Magenschutzwirkung: Minderung des Läsionsindexes (%) (Dosis 3,0 µmol/kg i.v.) | Säuresekretionshemmung: Verringerung der HCl-Sekretion (%) (Dosis 3,0 µmol/kg i.v.) | ED50 [1] | ED50 [2] | Magenschutzwirkung: Minderung des Läsionsindexes (%) (Dosis 10,0 µmol/kg i.v.) | Säuresekretionshemmung: Verringerung der HCl-Sekretion (%) (Dosis 10,0 µmol/kg i.v.) |
| --- | --- | --- | --- | --- | --- | --- | --- | --- | --- | --- | --- | --- | --- | --- |
| Cc1nc2c(OC3CCc4ccccc43)cccn2c1CC#N (stereo not drawn) [Beispiel 4, 3-Cyanomethyl-8-(2,3-dihydro-1-indenyloxy)-2-methyl-imidazo[1,2-a]pyridin] | 47% | -10% | 38% | 3% | 64% | 26% | 86% | 27% | 100% | 83% | ~0.1 µmol/kg | ~1.34 µmol/kg |  |  |
| Cc1nc2c(OC3CCc4ccccc43)cccn2c1C (stereo not drawn) [Beispiel 1, 8-(2,3-Dihydro-1-indenyloxy)-2,3-dimethyl-imidazo[1,2-a]pyridin] | 40% | 19% |  |  | 58% | 21% | 75% | 40% | 100% | 62% | ~0.2 µmol/kg | ~1.93 µmol/kg | 100% | 78% |
